Laboratory results from patent EP0329223A2, “Acetylenic and triyne cyclic carbonates” (Merck & Co., Inc., priority 1988, dated 1989).
pIC50: −log10 of the molar value. In brackets after ≈: the same amount, converted by molar mass. Where two headings read alike, the source gives them in different places.

Columns and labels:
[1] = molecular target: T1, Acetoacetyl-coenzyme A thiolase (Rattus norvegicus, UniProt Q5XI22); test: Acetoacetyl-coenzyme A thiolase inhibition, coupled spectrophotometric assay (NADH oxidation at 340 nm); format: biochemical, Sprague Dawley rats
T1 construct: prepared from the livers of Sprague Dawley rats treated in the diet for one week with 0.075% lovastatin to induce the enzyme; from tissue; host or cells: liver of lovastatin-treated Sprague Dawley rats
T1 sequence (Q5XI22 whole entry): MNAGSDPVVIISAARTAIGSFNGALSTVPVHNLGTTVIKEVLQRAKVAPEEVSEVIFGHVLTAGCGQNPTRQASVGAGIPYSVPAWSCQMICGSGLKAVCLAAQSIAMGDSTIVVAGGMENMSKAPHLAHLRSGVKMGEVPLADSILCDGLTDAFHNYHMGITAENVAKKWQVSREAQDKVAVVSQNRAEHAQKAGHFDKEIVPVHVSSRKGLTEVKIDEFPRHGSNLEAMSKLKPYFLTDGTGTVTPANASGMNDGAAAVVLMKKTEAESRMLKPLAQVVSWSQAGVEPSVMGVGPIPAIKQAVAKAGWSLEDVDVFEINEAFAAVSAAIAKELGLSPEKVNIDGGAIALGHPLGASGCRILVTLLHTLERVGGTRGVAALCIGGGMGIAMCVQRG
Procedure: Acetoacetyl-coenzyme A thiolase was prepared from the livers of Sprague Dawley rats treated in the diet for one week with 0.075% lovastatin to induce the enzyme. […] The 0.06 M eluate described by Mehrabian et al. contained the acetoacetyl-coenzyme A thiolase. The isolate was concentrated by ammonium sulfate precipitation, dissolved in the buffer used for elution, and stored at -70°C.
Reaction was measured at room temperature for a time period necessary to produce a measurable reaction rate. An IC₅₀, the concentration that inhibits 50% of the acetoacetyl-coenzyme A thiolase activity, was determined for each test compound. […]

Candida albicans MY 1055 = test: Antifungal assay, minimum inhibitory concentration; format: cell-based; details: lowest concentration that inhibits visible growth, Yeast Nitrogen Base/0.5% glucose, 37°C for 18 hours, starting inoculum 3-5 x 10⁻⁴ CFU/ml
Procedure: Antifungal activity was determined against Candida albicans MY 1055, a yeast strain maintained by Merck and Co; Rahway, New Jersey. Minimum inhibitory concentrations were determined using a starting inoculum of […]. The medium was Yeast Nitrogen Base/0.5% glucose. Test compounds were dissolved in a minimum amount of 50% aqueous ethanol and diluted to final concentrations with yeast medium. Samples were incubated at 37°C for 18 hours. The minimum inhibitory concentration (MIC), reported in µg/ml, is the lowest concentration of test compound that inhibits visible growth.

[2] = enzyme from rat liver (lovastatin-induced), pH 7.5, room temperature, 2.85 mM acetoacetyl-coenzyme A, read-out: IC₅₀

Row | pIC50 [1, 2] | Molecule | MIC (Candida albicans MY 1055; read-out: MIC) [µg/mL] | pIC50 [1] | MIC (Candida albicans MY 1055) [µg/mL]
1 |  | COC(=O)CCCCCC[C@@H]1OC(=O)O[C@H]1C(O)C#CC#CC#C[Si](C)(C)C (single isomer, unassigned) [Ex. 6] | 0.6 (≈ 1.48 µM) | 6.00 | 
2 |  | COC(=O)CCCCCC[C@@H]1OC(=O)O[C@H]1C(O)C#CC#CC#C[Si](C)(C)C (single isomer, unassigned) [Ex. 5] | 0.078 (≈ 0.193 µM) | 7.21 | 
3 | 8.05 | C#CC#CC#C[C@@H](OC(C)=O)[C@@H]1OC(=O)O[C@H]1CCCCCCC(=O)O [Ex. 19, 5-(1(R)-(Acetyloxy)-2,4,6-heptatriynyl)-2-oxo-4(S),5(S)-1,3-dioxolane-4-heptanoic acid] |  |  | 
4 | 7.62 | C#CC#CC#C[C@@H](O)[C@@H]1OC(=O)O[C@H]1CCCCCCC(=O)OC [Ex. 17, 5-(1(R)-Hydroxy-2,4,6-heptatriynyl)-2-oxo-4(S),5(S)-1,3-dioxolane-4-heptanoic acid, methyl ester] |  |  | 
5 | 6.82 | C#CC#CC#C[C@@H](OC(C)=O)[C@@H]1OC(=O)O[C@H]1CCCCCCC(=O)OC [Ex. 18, 5-(1(R)-(Acetyloxy)-2,4,6-heptatriynyl)-2-oxo-4(S),5(S)-1,3-dioxolane-4-heptanoic acid, methyl ester] |  |  | 

Row | Molecule | pIC50 [1, 2] | MIC (Candida albicans MY 1055; read-out: MIC) [µg/mL] | pIC50 [1] | MIC (Candida albicans MY 1055) [µg/mL]
6 | C#CC#CC#C[C@@H](OC)[C@@H]1OC(=O)O[C@H]1CCCCCCC(=O)OC [Ex. 20, 5-(1(R)-Methoxy-2,4,6-heptatriynyl)-2-oxo-4(S),5(S)-1,3-dioxolane-4 heptanoic acid, methyl ester] | 7.34 |  |  | 
7 | 5-(1(R)-Methoxy-2,4,6-octatriynyl)-2-oxo-4(S),5(S)-1,3 dioxolane-4-heptanoic acid, methyl ester [Ex. 13] | 6.25 |  |  | 5
